# From patent US7781428B2 (Pfizer Inc., priority 2006, dated 2010)
# Target: T1, mineralocorticoid receptor (MR) (Homo sapiens, UniProt P08235)
# T1 construct: expressed in transfected cells; host or cells: Huh7 (human liver cells)
# T1 sequence (P08235 726-964 limits assumed): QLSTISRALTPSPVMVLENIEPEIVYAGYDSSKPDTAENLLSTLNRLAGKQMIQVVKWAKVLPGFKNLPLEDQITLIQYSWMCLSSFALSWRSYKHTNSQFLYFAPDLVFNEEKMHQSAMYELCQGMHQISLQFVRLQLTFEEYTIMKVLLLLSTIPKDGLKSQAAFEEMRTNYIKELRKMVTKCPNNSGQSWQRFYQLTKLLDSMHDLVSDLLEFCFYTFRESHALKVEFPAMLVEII
# Assay: Cell-based Gal4 response element-controlled luciferase reporter assay (MR antagonism)
# Conditions: Huh7 human liver cells transfected with Gal4 DBD-MR LBD fusion and luciferase reporter; block of agonist-induced activation; overnight incubation
# Method in brief: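 Transiently transfected Huh7 cells were treated with agonist at 70-80% of full activation plus compounds for 18-20 h in medium with charcoal/dextran-stripped serum. Luciferase read-out was normalized to β-galactosidase (ONPG, OD420); IC50 came from curve fitting.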
row,Compound,IC50 [nM]
1,"N#Cc1ccc(N2N=C3c4ccc(C(=O)NCCCC(=O)O)cc4CC[C@@H]3[C@@H]2c2ccc(F)cc2)cc1Cl (racemic) [Example 106, (±)-4-((3RS,3aRS)-2-(3-chloro-4-cyanophenyl)-3-(4-fluorophenyl)-3,3a,4,5-tetrahydro-2H-benzo[g]indazole-7-carboxamido)butanoic acid]",312
2,"N#Cc1ccc(N2N=C3c4ccc(O)cc4CC[C@H]3[C@H]2c2ccc(F)cc2)cc1C(F)(F)F [Example 85, 4-((3S,3aS)-3-(4-fluorophenyl)-7-hydroxy-3,3a,4,5-tetrahydrobenzo[g]indazol-2-yl)-2-(trifluoromethyl)benzonitrile]",> 1000
3,"CC(C)C1C2COc3cc(C(=O)O)ccc3C2=NN1c1ccc(C#N)c(Cl)c1 (racemic) [Example 74, 2-(3-chloro-4-cyanophenyl)-3-isopropyl-2,3,3a,4-tetrahydrochromeno[4,3-c]pyrazole-7-carboxylic acid]",588
4,"N#Cc1ccc(N2N=C3c4ccc(C(=O)O)cc4OC[C@@H]3[C@@H]2C2CCCC2)cc1 [Example 71, (3S,3aR)-2-(4-cyanophenyl)-3-cyclopentyl-2,3,3a,4-tetrahydrochromeno[4,3-c]pyrazole-7-carboxylic acid]",205
5,"CS(=O)(=O)CCNC(=O)c1ccc2c(c1)CC[C@H]1C2=NN(c2ccc(C#N)c(Cl)c2)[C@H]1c1ccc(F)cc1 [Example 95, (3R,3aR)-2-(3-chloro-4-cyanophenyl)-3-(4-fluorophenyl)-N-(2-(methylsulfonyl)ethyl)-3,3a,4,5-tetrahydro-2H-benzo[g]indazole-7-carboxamide]",2
6,"N#Cc1ccc(N2N=C3c4ccc(C(=O)O)cc4CCC3C2c2ccc(F)cc2)cc1C(F)(F)F (racemic) [Example 9, 2-[4-cyano-3-(trifluoromethyl)phenyl]-3-(4-fluorophenyl)-3,3a,4,5-tetrahydro-2H-benzo[g]indazole-7-carboxylic acid]",170
7,"C[S+]([O-])CCNC(=O)c1ccc2c(c1)CC[C@H]1C2=NN(c2ccc(C#N)c(Cl)c2)[C@H]1c1ccc(F)cc1 (mixture of isomers) [Example 101, (±)-(3RS,3aRS)-2-(3-chloro-4-cyanophenyl)-3-(4-fluorophenyl)-N-[2-(methylsulfinyl)ethyl]-3,3a,4,5-tetrahydro-2H-benzo[g]indazole-7-carboxamide]",23
8,"N#Cc1ccc(N2N=C3c4ccc(C(=O)NCCCCC(=O)O)cc4CC[C@@H]3[C@@H]2c2ccc(F)cc2)cc1Cl (racemic) [Example 104, (±)-5-((3RS,3aRS)-2-(3-chloro-4-cyanophenyl)-3-(4-fluorophenyl)-3,3a,4,5-tetrahydro-2H-benzo[g]indazole-7-carboxamido)pentanoic acid]",122
9,"CCOC(=O)c1ccc2c(c1)CCC1C2=NN(c2ccc(C#N)c(Cl)c2)C1c1ccc(F)cc1 (stereo not shown) [Example 1, ethyl 2-(3-chloro-4-cyanophenyl)-3-(4-fluorophenyl)-3,3a,4,5-tetrahydro-2H-benzo[g]indazole-7-carboxylate]",1070

# Continued by falling IC50, values first:
row,IC50 [nM],Compound
1,3180,"N#Cc1ccc(N2N=C3c4ccc(C(=O)O)cc4OCC3C2c2ccc(F)cc2)cc1 (racemic) [Example 58, 2-(4-cyanophenyl)-3-(4-fluorophenyl)-2,3,3a,4-tetrahydrochromeno[4,3-c]pyrazole-7-carboxylic acid]"
2,150,"COCc1cc(N2N=C3c4ccc(C(=O)O)cc4CCC3C2C2CCCC2)ccc1C#N (racemic) [Example 28, 2-(4-cyano-3-(methoxymethyl)phenyl)-3-cyclopentyl-3,3a,4,5-tetrahydro-2H-benzo[g] indazole-7-carboxylic acid]"
3,141,"N#Cc1ccc(N2N=C3c4ccc(C(=O)NCCS(N)(=O)=O)cc4CC[C@@H]3[C@@H]2C2CCOCC2)cc1Cl (racemic) [Example 105, (±)-(3SR,3aRS)—N-[2-(aminosulfonyl)ethyl]-2-(3-chloro-4-cyanophenyl)-3-(tetrahydro-2H-pyran-4-yl)-3,3a,4,5-tetrahydro-2H-benzo[g]indazole-7-carboxamide]"
4,127,"N#Cc1ccc(N2N=C3c4ccc(C(=O)O)cc4CCC3C2C2CCOCC2)cc1Cl (racemic) [Example 36, 2-(3-chloro-4-cyanophenyl)-3-(tetrahydro-2H-pyran-4-yl)-3,3a,4,5-tetrahydro-2H-benzo[g]indazole-7-carboxylic acid]"
5,36,"N#Cc1ccc(N2N=C3c4ccc(O)cc4CC[C@@H]3[C@@H]2c2ccc(F)cc2)cc1Cl [Example 87, 2-chloro-4-((3R,3aR)-3-(4-fluorophenyl)-7-hydroxy-3,3a,4,5-tetrahydrobenzo[g]indazol-2-yl)benzonitrile]"
6,15,"N#Cc1ccc(N2N=C3c4ccc(C(=O)O)cc4CCC3C2C2=CCCC2)cc1Cl (racemic) [Example 42, 2-(3-chloro-4-cyanophenyl)-3-cyclopentenyl-3,3a,4,5-tetrahydro-2H-benzo[g]indazole-7-carboxylic acid]"
7,13,"C[S+]([O-])CCNC(=O)c1ccc2c(c1)CC[C@@H]1C2=NN(c2ccc(C#N)c(Cl)c2)[C@H]1c1ccc(F)cc1 (mixture of isomers) [Example 98, (±)-(3RS,3aSR)-2-(3-chloro-4-cyanophenyl)-3-(4-fluorophenyl)-N-(2-(methylsulfinyl)ethyl)-3,3a,4,5-tetrahydro-2H-benzo[g]indazole-7-carboxamide]"
